Activity calls are given as the source filed them. The rule behind the calls is not given here.
What was measured:
K562 = assay: Antiproliferative activity against human K562 cells assessed as reduction in cell viability incubated for 72 hrs by resazurin dye based assay; format: functional; conditions: K562, 72 h
CCRF-CEM = assay: Antiproliferative activity against human CEM cells assessed as reduction in cell viability incubated for 72 hrs by resazurin dye based assay; format: functional
MV4-11 = assay: Antiproliferative activity against human MV4-11 cells assessed as reduction in cell viability incubated for 72 hrs by resazurin dye based assay; format: functional; conditions: MV4-11, 72 h
ML-2 = assay: Antiproliferative activity against human ML-2 cells assessed as reduction in cell viability incubated for 72 hrs by resazurin dye based assay; format: functional; conditions: ML-2, 72 h
RS4-11 [1] = assay: Antiproliferative activity against human RS4-11 cells assessed as reduction in cell viability incubated for 72 hrs by resazurin dye based assay; format: functional; conditions: RS4-11, 72 h
KOPN-8 = assay: Antiproliferative activity against human KOPN-8 cells assessed as reduction in cell viability incubated for 72 hrs by resazurin dye based assay; format: functional; conditions: KOPN-8, 72 h
RS4-11 [2] = assay: Downregulation of HOXA9 protein expression in human RS4-11 cells at 5 to 20 uM measured after 24 hrs by Western blot analysis; format: functional, cell-based; conditions: dose 5-20 µM
RS4-11 [3] = assay: Induction of cell cycle arrest in human RS4-11 cells assessed as accumulation of cells in G2/M phase at 1.25 to 10 uM measured after 72 hrs by PI staining based flow cytometry analysis; format: functional; conditions: dose 1.25-10 µM
RS4-11 [4] = assay: Downregulation of MEIS1 protein expression in human RS4-11 cells at 5 to 20 uM measured after 24 hrs by Western blot analysis; format: functional, cell-based; conditions: dose 5-20 µM
RS4-11 [5] = assay: Induction of cell cycle arrest in human RS4-11 cells assessed as accumulation of cells in subG1 phase at 1.25 to 10 uM measured after 72 hrs by PI staining based flow cytometry analysis; format: functional; conditions: dose 1.25-10 µM

Row | IC50 (K562) | IC50 (CCRF-CEM) | IC50 (MV4-11) | IC50 (RS4-11 [1]) | SMILES | IC50 (ML-2) | IC50 (KOPN-8) | Activity (RS4-11 [2]) | Activity (RS4-11 [3]) | Activity (RS4-11 [4]) | Activity (RS4-11 [5])
1 | 11.6 µM | > 25 µM | 34.2 µM |  | N#Cc1c(-c2cccs2)nc2c(c(-c3ccccc3)nn2-c2ccccc2)c1-c1ccc(O)cc1 |  |  |  |  |  | 
2 | 5.9 µM | > 25 µM | > 25 µM | > 25 µM | N#Cc1c(-c2ccccc2)nc2c(c(-c3ccccc3)nn2-c2ccccc2)c1-c1ccc2c(c1)OCO2 | > 25 µM | > 25 µM |  |  |  | 
3 | 2 µM | 23.9 µM | 5.1 µM | 4.6 µM | Cc1ccc(-c2nc3c(c(-c4ccccc4)nn3-c3ccccc3)c(-c3ccc4c(c3)OCO4)c2C#N)cc1 | 7.7 µM | 0.7 µM | Active | Active | Active | Active
4 | > 25 µM | > 25 µM | > 25 µM |  | COc1ccc(-c2c(C#N)c(-c3ccccc3)nc3c2c(-c2ccccc2)nn3-c2ccccc2)cc1OC |  |  |  |  |  | 

Reference: ChEMBL document CHEMBL5131391, “One-pot three-component synthesis of novel pyrazolo[3,4-b]pyridines as potent antileukemic agents” (Eur J Med Chem, 2022)
